The values that follow come from patent publication US20100249093A1, “Substituted Heteroarylpiperidine Derivatives As Melanocortin-4 Receptor Modulators” (SANTHERA PHARMACEUTICALS (SCHWEIZ) AG, priority 2007, published 2010).

Broadly, the IC50 is the concentration at which inhibition is half-maximal. What is called EC50 is the concentration that produces a half-maximal response.

Where only a bound is given, the exact number is not on record here.

For assay [1], the target named is T1, human melanocortin-4 receptor (MC-4R) (Homo sapiens, UniProt P32245).
T1 construct: expressed in transfected cells; host or cells: HEK293
T1 sequence (P32245 whole entry): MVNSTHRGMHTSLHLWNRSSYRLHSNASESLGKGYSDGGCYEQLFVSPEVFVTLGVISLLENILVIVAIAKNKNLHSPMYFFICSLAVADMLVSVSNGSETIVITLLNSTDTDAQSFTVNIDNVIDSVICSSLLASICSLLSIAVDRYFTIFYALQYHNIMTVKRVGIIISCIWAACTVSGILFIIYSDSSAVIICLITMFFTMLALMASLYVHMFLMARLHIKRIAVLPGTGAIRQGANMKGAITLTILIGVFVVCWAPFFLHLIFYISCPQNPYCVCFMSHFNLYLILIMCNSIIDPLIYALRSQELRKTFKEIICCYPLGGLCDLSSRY
Description: Functional assay: agonistic activity, cAMP production in membrane preparations compared with NDP-alpha-MSH, fluorescence polarization. In kind it is biochemical. The following applies: for Emax: cAMP produced compared to stimulation with NDP-alpha-MSH, read-out: % activation functional assay. A general note: Changes in cAMP serve as a functional read-out for many G protein-coupled receptors.

The target in assay [2] is T1, human melanocortin-4 receptor (MC-4R). Description: Membrane binding assay: competition with fluorescence labeled NDP-alpha-MSH, fluorescence polarization. The following applies: HEK293 cell membrane preparations expressing human MC-4R, read-out: hMC-4R binding assay IC50. A general note: Fluorescence polarisation rises when a labelled molecule tumbles more slowly, as on binding a larger partner.

As to `CC[C@H](COc1cccnc1C1CCN(C(=O)[C@@H](Cc2ccc(Cl)cc2Cl)NC(=O)N2CCCC(C)(O)C2)CC1)N(C)C` (stereo partly drawn) [Example 125], in assay [1], the Emax is -8%. Also, in assay [2], the concentration for half-maximal inhibition (IC50) was at most 0.1 µM.
The like results for `CC[C@H](COc1cccnc1C1CCN(C(=O)[C@@H](Cc2ccc(Cl)cc2Cl)NC(=O)N(C)CC(C)(C)O)CC1)N(C)C` [Example 111] were, in that order, -23% and at most 0.1 µM.
In the case of `CC[C@H]1CN(C)CCN1Cc1cccnc1C1CCN(C(=O)[C@@H](Cc2ccc(Cl)cc2Cl)NC(=O)N2CCCC2)CC1` [Example 50], the Emax in assay [1] turned out to be 0%. Moreover, the 50% inhibitory concentration (IC50) in assay [2] was at most 0.1 µM.
As for `CC[C@H](COc1cccnc1C1CCN(C(=O)[C@@H](Cc2ccc(Cl)cc2Cl)NC(=O)N2CC[C@@H](N)C2)CC1)N(C)C` [Example 131], the Emax in assay [1] is -2%. In assay [2], the half-inhibitory concentration (IC50) is at most 0.1 µM.
In the same order, the values of `CC[C@H](COc1cccnc1C1CCN(C(=O)[C@@H](Cc2ccc(Cl)cc2Cl)NC(=O)N2CCC(C)(O)CC2)CC1)N(C)C` [Example 112] are -8% and at most 0.1 µM.
The like results for `CC[C@H](COc1cccnc1C1CCN(C(=O)[C@@H](Cc2ccc(Cl)cc2Cl)NC(=O)N2CCC[C@@H](O)C2)CC1)N(C)C` [Example 113] were, in that order, -14% and at most 0.1 µM.
Regarding `CC[C@H](COc1cccnc1C1CCN(C(=O)[C@@H](Cc2ccc(Cl)cc2Cl)NC(=O)N2CC(O)C2)CC1)N1CCCC1` [Example 84], the Emax in assay [1] worked out at 0%. Besides, in assay [2], the IC50 is at most 0.1 µM.
Consider `CC[C@H](COc1c(C)ccnc1C1CCN(C(=O)[C@@H](Cc2ccc(Cl)cc2Cl)NC(=O)N2CCCC2)CC1)N(C)C` [Example 35], for which the Emax in assay [1] stood at 7%. In assay [2], the half-maximal inhibitory concentration (IC50) was 0.1 to 1 µM.
As to `CN(C)C[C@@H](Oc1cccnc1C1CCN(C(=O)[C@@H](Cc2ccc(Cl)cc2Cl)NC(=O)N2CCCC2)CC1)C(F)(F)F` [Example 58], the Emax in assay [1] stood at 4%. In addition, the IC50 in assay [2] lay within 0.1 to 1 µM.
The like results for `CN1CCC[C@H](Oc2cccnc2C2CCN(C(=O)[C@@H](Cc3ccc(Cl)cc3Cl)NC(=O)N3CC[C@H](O)C3)CC2)C1` [Example 141] were, in that order, -3% and at most 0.1 µM.
As for `CC[C@H](COc1cccnc1C1CCN(C(=O)[C@@H](Cc2ccc(Cl)cc2Cl)NC(=O)N2CCOCC2)CC1)N1CCCC1` [Example 91], in assay [1], the Emax was 0%. In addition, the IC50 in assay [2] was at most 0.1 µM.
The like results for `CC[C@H](COc1cccnc1C1CCN(C(=O)[C@@H](Cc2ccc(Cl)cc2Cl)NC(=O)N2CCC(O)CC2)CC1)N1CCCC1` [Example 96] were, in that order, 0% and at most 0.1 µM.
Consider `O=C(N[C@H](Cc1ccc(Cl)cc1Cl)C(=O)N1CCC(c2cccnc2O[C@H]2CN3CCC2CC3)CC1)N1CCCC1` [Example 10], for which, in assay [1], the Emax stood at 0%. In addition, the half-maximal inhibitory concentration (IC50) in assay [2] was in the range of 0.1 to 1 µM.
As for `CN1CCN(CCOc2cccnc2C2CCN(C(=O)[C@@H](Cc3ccc(Cl)cc3Cl)NC(=O)N3CCCC3)CC2)CC1` [Example 37], the Emax in assay [1] is -2%. Besides, in assay [2], the IC50 fell in the range of 0.1 to 1 µM.
For `COCCN(C)C(=O)N[C@H](Cc1ccc(Cl)cc1Cl)C(=O)N1CCC(c2ncccc2O[C@H]2CCCN(C)C2)CC1` [Example 142], the Emax in assay [1] is -32%. The concentration for a half-maximal effect (EC50) in assay [1] (cAMP production, membrane preparations from HEK293 cells expressing human MC-4R, read-out: hMC-4R functional assay EC50) is at most 0.1 µM. In addition, the IC50 in assay [2] is at most 0.1 µM.
As for `CN1CCN(Cc2cccnc2C2CCN(C(=O)[C@@H](Cc3ccc(Cl)cc3Cl)NC(=O)N3CCCC3)CC2)CC1` [Example 28], the Emax in assay [1] was 0%. In addition, the IC50 in assay [2] was in the range of 0.1 to 1 µM.
As to `CC[C@H](COc1cccnc1C1CCN(C(=O)[C@@H](Cc2ccc(Cl)cc2Cl)NC(=O)N(C)C)CC1)N1CCCC1` [Example 77], the Emax in assay [1] is 0%. The IC50 in assay [2] was at most 0.1 µM.
In the same order, the values of `CN1CC(Oc2cccnc2C2CCN(C(=O)[C@@H](Cc3ccc(Cl)cc3Cl)NC(=O)N3CCCC3)CC2)C1` [Example 41] are -1% and 0.1 to 1 µM.
The like results for `CN1CCN(Cc2cc(F)cnc2C2CCN(C(=O)[C@@H](Cc3ccc(Cl)cc3Cl)NC(=O)N3CCCC3)CC2)CC1` [Example 59] were, in that order, -1% and at most 0.1 µM.
The like results for `CC[C@H](COc1cccnc1C1CCN(C(=O)[C@@H](Cc2ccc(Cl)cc2Cl)NC(=O)N2CCC[C@H](O)C2)CC1)N(C)C` [Example 105] were, in that order, -3% and at most 0.1 µM.
As to `CC[C@H](COc1cc(Cl)cnc1C1CCN(C(=O)[C@@H](Cc2ccc(C)cc2C)NC(=O)N2CCCC2)CC1)N1CCCC1` [Example 71], the Emax in assay [1] is -4%. For the same compound, the IC50 in assay [2] is at most 0.1 µM.
The like results for `C[C@@H](CCN(C)C)Oc1cccnc1C1CCN(C(=O)[C@@H](Cc2ccc(Cl)cc2Cl)NC(=O)N2CCCC2)CC1` [Example 62] were, in that order, -10% and at most 0.1 µM.
The like results for `CC[C@H](COc1cccnc1C1CCN(C(=O)[C@@H](Cc2ccc(Cl)cc2Cl)NC(=O)N2CC[C@@H](OC(C)=O)C2)CC1)N(C)C` [Example 120] were, in that order, 5% and at most 0.1 µM.
In the same order, the values of `CC[C@H](COc1ccncc1C1CCN(C(=O)[C@@H](Cc2ccc(Cl)cc2Cl)NC(=O)N2CCCC2)CC1)N(C)C` [Example 13] are 0% and 0.1 to 1 µM.
Consider `Cc1ccc(C2CCN(C(=O)[C@@H](Cc3ccc(Cl)cc3Cl)NC(=O)N3CCCC3)CC2)c(N(C)CCN2CCCC2)n1` [Example 2], for which the Emax in assay [1] turned out to be 0%. In addition, the IC50 in assay [2] is at most 0.1 µM.
In the same order, the values of `Cc1ccc(C2CCN(C(=O)[C@@H](Cc3ccc(Cl)cc3Cl)NC(=O)N3CCCC3)CC2)c(N2CCN(C)CC2)n1` [Example 4] are 0% and at most 0.1 µM.
Take `CC[C@@H](CN(C)C)Oc1cccnc1C1CCN(C(=O)[C@@H](Cc2ccc(Cl)cc2Cl)NC(=O)N(C)CCOC)CC1` [Example 138]: the Emax in assay [1] turned out to be 9%. Further, the IC50 in assay [2] was at most 0.1 µM.
In the case of `CC[C@H](COc1cccnc1C1CCN(C(=O)[C@@H](Cc2ccc(Cl)cc2Cl)NC(=O)N2CC[C@@H](O)C2)CC1)N1CCCC1` [Example 80], the Emax in assay [1] was 0%. The IC50 in assay [2] was at most 0.1 µM.
The like results for `CC[C@H](COc1cccnc1C1CCN(C(=O)[C@@H](Cc2ccc(Cl)cc2Cl)NC(=O)N2CCC=N2)CC1)N1CCCC1` [Example 95] were, in that order, 0% and at most 0.1 µM.
`CN(C)[C@@H]1CCC[C@@H]1Oc1cccnc1C1CCN(C(=O)[C@@H](Cc2ccc(Cl)cc2Cl)NC(=O)N2CCCC2)CC1` [Example 57]: the Emax in assay [1] worked out at 5%. In addition, the IC50 in assay [2] was at most 0.1 µM.
In the case of `CC[C@@H](COc1cccnc1C1CCN(C(=O)[C@@H](Cc2ccc(Cl)cc2Cl)NC(=O)N2CCCC2)CC1)N1CCCC1` [Example 31], the Emax in assay [1] is -3%. For the same compound, in assay [2], the IC50 is at most 0.1 µM.
Regarding `CC[C@H](COc1cccnc1C1CCN(C(=O)[C@@H](Cc2ccc(Cl)cc2Cl)NC(=O)N2CC[C@@H](OC)C2)CC1)N(C)C` [Example 108], the Emax in assay [1] was determined as 0%. Moreover, in assay [2], the IC50 is at most 0.1 µM.
Regarding `CC[C@H](COc1cccnc1C1CCN(C(=O)[C@@H](Cc2ccc(Cl)cc2Cl)NC(=O)N2CCC[C@H]2CO)CC1)N(C)C` [Example 106], the Emax in assay [1] was -1%. The IC50 in assay [2] is at most 0.1 µM.
With `CC[C@H](COc1cccnc1C1CCN(C(=O)[C@@H](Cc2ccc(Cl)cc2Cl)NC(=O)N2CC(OC)C2)CC1)N1CCCC1` [Example 98], the Emax in assay [1] amounted to 13%. The IC50 in assay [2] was at most 0.1 µM.
